Test results as given in patent US7846903B2, “Type II cubic liquid crystal composition” (National Institute of Advanced Industrial Science and …, priority 2004, dated 2010).

What was measured:
[1] = Krafft temperature (TK) by DSC of amphiphilic compound/water system; assay type: physicochemical; settings: for Krafft temperature (° C.): amphiphilic compound alone; for TK (Krafft temperature): compound/water system
Protocol: Liquid crystals such as cubic liquid crystals formed by amphiphilic lipids are formed only at the Krafft temperature (TK), as determined depending on types and concentrations of amphiphilic lipids, or higher. Furthermore, liquid crystals generally undergo a phase transition upon changes in the concentration of the amphiphilic lipid or temperature. Accordingly, the maximal temperature (Tmax) at which a given liquid crystal structure can be stably present is also determined depending on lipid type and concentration of amphiphilic lipid. Thus, a liquid crystal structure formed by a given type of amphiphilic lipid is stably formed in the temperature range between TK and Tmax. The correlation between TK-Tmax and the concentration of the amphiphilic lipid is generally indicated as a “concentration-temperature dependent phase diagram” of the amphiphilic lipid/water system. The Krafft temperature of the amphiphilic lipid can be determined by a method known in the art, such as a method involving the preparation of such a phase diagram (e.g., Laughlin, R. G., “The Aqueous Phase Behavior of Surfactants,” 1994, Academic Press London, pp. 106-117). The Krafft temperature of a mixture of two or more amphiphilic lipids can be determined by the same method.
In the cubic liquid crystal composition of the present invention, stable bicontinuous type II cubic liquid crystals are formed at low temperatures, such as lower than 6° C. In the liquid crystal composition of the present invention, stable bicontinuous type II cubic liquid crystals are typically formed between −10° C. (or at the freezing temperature of the aqueous medium used or higher) and 80° C., and preferably between 0° C. and 50° C. The Krafft temperature of the amphiphilic lipid can be easily determined by, for example, DSC assay of an aqueous solution containing 1% to 85% by mass of amphiphilic lipid or by observing the melting behavior of the amphiphilic lipid under a (polarizing) microscope. More precisely, such temperature may be determined in accordance with a conventional technique involving the preparation of a phase diagram (e.g., Laughlin, R. G., “The Aqueous Phase Behavior of Surfactants,” 1994, Academic Press, London, pp. 106-117).
The Krafft temperatures of these amphiphilic compounds and mixtures thereof determined by the analyses described below are shown in Table 2-1 and Table 2-2.
Subsequently, the sample of mono-O-(phytanyl)pentaerythritol/water system was subjected to differential scanning calorimetry (DSC) in a temperature range between −45° C. and 70° C. DSC analysis employed the Seiko SSC/560U differential scanning calorimeter (Seiko Instruments Inc.). The sample of mono-O-(phytanyl)pentaerythritol/water system (72.4% by mass) prepared by the above method was sealed in a DSC cell, and the sample was incubated while cooling at −45° C. for 3 hours to thoroughly form a hydrated solid of mono-O-(phytanyl)pentaerythritol (hereafter abbreviated as “hydrated solid”). Subsequently, this hydrated solid was heated at a rate of temperature increase of 0.5° C./minute and a melting behavior of the hydrated solid was inspected by DSC analysis. As a result, an endothermic peak resulting from melting of the hydrated solid that begins at around −40° C. and ends at around −27° C. and an endothermic peak resulting from ice melting observed between −10° C. and 1° C. were observed, as shown in FIG. 4. In FIG. 4, the left peak is the endothermic peak resulting from melting of the hydrated solid and the right peak is the endothermic peak resulting from ice melting. Although analysis was conducted up to 70° C., other thermal transition was not observed. Substantially the same results were obtained at other concentrations. Thus, the TK of mono-O-(phytanyl)pentaerythritol was concluded to be 0° C. or lower.

[2] = Formation and structure of cubic liquid crystals by polarizing microscopy (penetration method) and SAXS; assay type: physicochemical; settings: for liquid crystal phase formed: mixed with water, polarizing microscopy and/or SAXS
Source text: Whether or not the amphiphilic lipid/water system forms cubic liquid crystals and whether or not such composition is type I or II can be easily determined by the penetration method. A small amount (several mg) of amphiphilic lipids is placed on a glass slide for a microscope, and slight pressure is applied with a glass cover to form a thin layer of amphiphilic lipids (diameter: about 1 to 5 mm) with a thickness of about 10 μm in the gap between the glass slide and the glass cover. Upon addition of water or an aqueous medium from a side of the gap between the glass slide and the glass cover by capillary action, water gradually invades the amphiphilic lipid thin layer from the exterior edge, and a water content gradient is formed from the amphiphilic lipid thin layer/water interface toward the inside of the amphiphilic lipid thin layer. Polarizing microscopic observation thereof enables the determination of a phase type formed depending on the concentration of the amphiphilic lipid/water system. […] In FIG. 2, 4 regions are observed. The rightmost region in the photograph indicates a water region, and the other regions indicate hydrous amphiphilic lipid regions. In the photograph, the rightmost regions indicates the highest water content and the leftmost region indicates a region of amphiphilic lipids that has not yet been penetrated by water. […] Since cubic liquid crystals are stably formed at the interface of excess water and the amphiphilic lipid portion, such crystals are found to be of type II.
To this end, whether or not the liquid crystal structure has cubic lattices may be investigated by the small-angle x-ray scattering (SAXS) assay. In this process, a sample of an amphiphilic lipid/water system at a given concentration may be introduced into a quartz X-ray capillary tube, the capillary may be sealed with an oxygen burner, and the resultant may be subjected to the SAXS assay.
The cubic liquid crystal composition of the present invention is not particularly limited. […] Thus, spaces and lattice constants can be easily determined. The peak values of small angle X-ray scattering or the cubic lattice size of cubic liquid crystals in the presence of an excess aqueous solvent are at constant levels regardless of the lipid concentration. The coexistence state of cubic liquid crystals and an excess aqueous medium can be confirmed by the SAXS assay. Thus, whether or not the cubic liquid crystals are of type II can be easily determined.
In equations, nL and nW are actually measurable, and ac can be measured by the SAXS experiment. Thus, the dhc value can be determined based on equations (ii) and (iii). […] Based on such comparison, whether or not the cubic liquid crystal structure is of a bicontinuous type can be determined.
Mono-O-(3,7,11,15-tetramethylhexadecyl)pentaerythritol (hereafter referred to as “mono-O-(phytanyl)pentaerythritol,” formula (5) above) and pure water were introduced into a mixing device, and incubation was carried out while performing 100 or more times of mixing operations at room temperature (23° C.) over the period of 48 hours. Thus, a homogeneously mixed sample of mono-O-(phytanyl)pentaerythritol/water system was obtained. This sample of mono-O-(phytanyl)pentaerythritol/water system appeared to be a transparent gel composition.
Subsequently, the thus obtained sample of mono-O-(phytanyl)pentaerythritol/water system (the concentration of the amphiphilic compound: 74.6% by mass) was observed by polarizing microscopy. In entire region of the lipid portions, optically isotropic textures peculiar to the cubic liquid crystals were observed (FIG. 3). In FIG. 3, the right region indicates water and the left region indicates the sample of mono-O-(phytanyl)pentaerythritol/water system. […] Such observation indicates the formation of cubic liquid crystals.
Subsequently, the sample of mono-O-(phytanyl)pentaerythritol/water system was confirmed to be a cubic liquid crystal by small-angle x-ray scattering (SAXS). […]

[3] = lipid alone, total amphiphilic compound content 60% by mass (excess water)

CC(C)CCCC(C)CCCC(C)CCCC(C)CCCCOCC(CO)(CO)CO (stereo not drawn) [formula (8), mono-O-(5,9,13,17-tetramethyloctadecyl)pentaerythritol]
Krafft temperature (° C.) [1]: 0 °C or lower | TK (Krafft temperature) [1]: ≤ 0 °C | liquid crystal phase formed [2]: bicontinuous type II Pn3m cubic liquid crystals

CC(C)CCCC(C)CCCC(C)CCCC(C)CCOCC(O)CO (stereo not drawn) [1-O-(3,7,11-15-tetramethylhexadecyl)glycerol, reference compound]
liquid crystal phase formed [2]: type II hexagonal liquid crystals

CC(C)CCCC(C)CCCC(C)CCCC(C)CCCC(=O)OCC(CO)(CO)CO (stereo not drawn) [formula (9)]
Krafft temperature (° C.) [1]: 0 °C or lower | TK (Krafft temperature) [1]: ≤ 0 °C | liquid crystal phase formed [2]: bicontinuous type II Pn3m cubic liquid crystals

CC(C)CCCC(C)CCCC(C)CCCCOCC(CO)(CO)CO (stereo not drawn) [formula (12), mono-O-(5,9,13-trimethyltetradecyl)pentaerythritol]
Krafft temperature (° C.) [1]: 0 °C or lower | TK (Krafft temperature) [1]: ≤ 0 °C

CC(C)CCCC(C)CCCC(C)CCCC(C)CC(=O)OCC(CO)(CO)CO (stereo not drawn) [formula (6), mono-O-(3,7,11,15-tetramethylhexadecanoyl)pentaerythritol]
Krafft temperature (° C.) [1]: 0 °C or lower | TK (Krafft temperature) [1]: ≤ 0 °C | lattice constant ([2]; 58.9% by mass, 25° C.): 10.6 nm | lattice constant ([2]; 58.9% by mass, 55° C.): 8.3 nm | Temperature at which formation of cubic liquid crystals was observed (° C.) ([2]; Table 4, 56.0% by mass, two-phase system of Pn3m cubic and lamellar liquid crystals): 1 (Two-phase system of Pn3m cubic liquid ° C.

CC(C)CCCC(C)CCCC(C)CCCC(C)CCCCOC1OC[C@@H](O)C(O)C1O (stereo partly drawn) [formula (10), 1-O-(5,9,13,17-tetramethyloctadecyl)-β-D-xylopyranoside]
Krafft temperature (° C.) [1]: 0 °C or lower | TK (Krafft temperature) [1]: ≤ 0 °C | lattice constant ([2]; 61.5% by mass, 1° C.): 10.1 nm | lattice constant ([2]; 61.5% by mass, 30° C.): 9.9 nm | lattice constant ([2]; 61.5% by mass, 40° C.): 9.5 nm

CC(C)CCCC(C)CCCC(C)CCCC(C)CCOC1OC[C@@H](O)C(O)C1O (stereo partly drawn) [formula (11)]
Krafft temperature (° C.) [1]: 0 °C or lower | TK (Krafft temperature) ([1]; listed as α-XP): ≤ 0 °C | lattice constant ([2]; 84.2% by mass, 1° C.): 9.8 nm | lattice constant ([2]; 84.2% by mass, 25° C.): 9.7 nm | lattice constant ([2]; 84.2% by mass, 40° C.): 9.6 nm | Temperature at which formation of cubic liquid crystals was observed (° C.) ([2]; Table 12, 78.0% by mass, Ia3d): 1 (Ia3d cubic liquid crystals) ° C.

CC(C)CCCC(C)CCCC(C)CCCC(C)CCOCC(CO)(CO)CO (stereo not drawn) [formula (5), mono-O-(3,7,11,15-tetramethylhexadecyl)pentaerythritol]
Krafft temperature (° C.) [1]: 0 °C or lower | TK (Krafft temperature) [1]: ≤ 0 °C | maximal temperature at which the cubic liquid crystal structure is formed [2]: 40 °C | lattice constant ([2]; 56.7% by mass, Pn3m cubic liquid crystals, 1° C.): 8.2 nm | lattice constant ([2]; 74.6% by mass, Ia3d cubic liquid crystals, 1° C.): 12.3 nm | Temperature at which formation of cubic liquid crystals was observed (° C.) ([2]; 74.6% by mass, two-phase system of Ia3d and Pn3m cubic liquid crystals): 25 (Two-phase system of Ia3d and Pn3m cubic ° C. | dhc value of bilayer membrane of the cubic liquid crystal structure ([2]; calculated based on SAXS results): 1.17±0.1 nm | diameter of the water channel of the cubic liquid crystals [2, 3]: 2.5 nm | lattice constant of the cubic liquid crystals [2, 3]: 7.06 nm

CC(C)CCCC(C)CCCC(C)CCCCOCC(O)C(O)CO (stereo not drawn) [formula (3), 1-O-(5,9,13-trimethyltetradecyl)erythritol]
Krafft temperature (° C.) [1]: 0 °C or lower | TK (Krafft temperature) [1]: ≤ 0 °C | lattice constant ([2]; Ia3d, 53.7% by mass, 20° C.): 17.3 nm | lattice constant ([2]; Ia3d, 53.7% by mass, 35° C.): 17.2 nm | lattice constant ([2]; Ia3d, 53.7% by mass, 40° C.): 17.1 nm | Temperature at which formation of cubic liquid crystals was observed (° C.) ([2]; Table 6, 53.7% by mass, Ia3d + Pn3m): 40 (Ia3d + Pn3m cubic liquid crystals) ° C.

CC(C)CCCC(C)CCCC(C)CCCC(C)CCCC(=O)OCC(O)C(O)CO (stereo not drawn) [formula (7), 1-O-(5,9,13,17-tetramethyloctadecanoyl)erythritol]
Krafft temperature (° C.) [1]: 0 °C or lower | TK (Krafft temperature) [1]: ≤ 0 °C

CC(C)CCCC(C)CCCC(C)CCCC(C)CC(=O)OCC(O)C(O)CO (stereo not drawn) [formula (4), 1-O-(3,7,11,15-tetramethylhexadecanoyl)erythritol]
Krafft temperature (° C.) [1]: 0 °C or lower | TK (Krafft temperature) [1]: ≤ 0 °C | lattice constant ([2]; Pn3m, 52.3% by mass, 1° C.): 11.4 nm | lattice constant ([2]; Pn3m, 52.3% by mass, 25° C.): 11.3 nm | lattice constant ([2]; Pn3m, 52.3% by mass, 45° C.): 10.1 nm

CC(C)CCCC(C)CCCC(C)CCOCC(O)C(O)CO (stereo not drawn) [formula (2), 1-O-(3,7,11-trimethyldodecyl)erythritol]
Krafft temperature (° C.) [1]: 0 °C or lower
